# Measurements as given in US20110190249A1, “THERAPEUTIC METHODS AND USES OF SAPOGENINS AND THEIR DERIVATIVES” (PHYTOPHARM PLC, priority 2002, published 2011).
# Marks after values point to notes of the source that are not given here.
# Assays:
# [1] = tested on: rat primary cortical neurones; experiment: Prevention of glutamate-induced neurodegeneration (LDH release), pre-treatment; assay type: cell-based; conditions: 30 nM, given 24 h before glutamate; LDH 24 h after glutamate; control = 100
# Description: The objective of this study was to examine the effects of sarsasapogenin, episarsasapogenin cathylate, episarsasapogenin, epismilagenin and smilagenin on the survival of rat primary cortical neurones exposed to glutamate, which is known to induce neuro degeneration.
# Rat cortical neurones were cultured for 10 days; at day 10 the medium was changed to a serum-free defined medium. On day 12, 24 hours before glutamate exposure, cultures were washed and medium was replaced with fresh medium containing positive control (β-oestradiol), test compounds (sarsasapogenin, episarsasapogenin cathylate, episarsasapogenin, epismilagenin and smilagenin) or vehicle control (DMSO, 0.25%) or diosgenin as negative control.
# On day 13, cultures were exposed to glutamate. After the incubation period, the cultures were washed with and placed in fresh medium, supplemented with relevant compounds or vehicle to evaluate their protective effects, 24 h after glutamate exposure.
# (§1) Neuronal cell survival was evaluated by measuring lactate dehydrogenase (LDH) activity released in the media 24 h after test compound treatment or glutamate+test compound exposure, using the CytoTox 96 non-radioactive kit and quantitated by measuring wavelength absorbance at 450 nm.
# [2] = tested on: muscarinic acetylcholine receptor; experiment: Brain muscarinic acetylcholine receptor density in aged rats (dual-site competitive ligand binding); assay type: in vivo, rat; conditions: 18 mg kg−1 day−1 oral, 2-3 months
# Description: (§2) Aged Sprague-Dawley rats aged were divided into different groups, one control and groups treated for 2-3 months with either sarsasapogenin, episarsasapogenin cathylate or smilagenin (18 mg kg^−1 day^−1, n=10). A control group (n=14) of untreated young rats was also included in the study. The daily dose of drug was mixed in a minimum amount of food and was administered every morning separately to each rat.
# Muscarinic acetylcholine receptor density in the brain was measured. Tissue was prepared as follows: brains were removed quickly after decapitation, frozen in dry ice, and transferred to a freezer. The brains were homogenised and the pellet was finally suspended in buffer.
# The dual-site competitive ligand binding assay was used to measure muscarinic acetylcholine receptor density.
# aged Sprague-Dawley rats = experiment: Y-maze learning and memory test in aged rats; assay type: in vivo, rat; conditions: 18 mg kg−1 day−1 oral in food, 3 months
# Description: as §2
# A Y-maze apparatus was used for the learning and memory test. On the floor of each arm of the Y-maze is an array of copper rods to which electric current is applied whenever needed, with adjustable voltage. Each arm is 45 cm long and has a 15 W lamp at the end, which is turned on when needed. After 3 months drug administration, each rat was trained for 7 consecutive days, as follows. For each training session, the rat was put into one arm of the Y-maze, after two minutes rest, an electrical current was applied to the copper rods and the lamp of the clockwise arm was illuminated to indicate the non-stimulation area. If the rat went into that arm, one correct response was recorded, otherwise, one wrong response was recorded: This stimulation-response test was repeated 20 times each day, with a pause of 5 sec between each two consecutive tests. The number of correct responses following the twenty tests on the seventh day was used to express learning ability, (the higher the number the better the learning ability). The rats were then left resting for 30 days and the procedure was repeated once more. The number of correct responses of the 20 tests after the 30 day rest period was used to represent the memory ability
# [3] = tested on: Sprague Dawley rats injected with amyloid β1-40 and ibotenic acid; experiment: Step-through test in amyloid β + ibotenic acid rat model; assay type: in vivo; conditions: 18 mg/kg/day gastric tube, two months; errors in 5 min; model 4.00 ± 2.40, control 0.60 ± 0.70
# Description: (§3) An in vivo model of Alzheimer's disease was used to model neurodegeneration. In this model the neurotoxic agents (amyloid β and ibotenic acid) are injected into the brain of the rat. This leads to neuronal loss, receptor loss and cognitive impairment. […] In addition the co-injection of amyloid β with a small amount of ibotenic acid into the rat hippocampus synergistically produces neuronal loss with infiltration of glial cells not only adjacent but also far from the injected site (Morimoto et al., 1998: Neuroscience, 84, 479-487).
# (§4) Our studies used the method of Morimoto (Morimoto et al., 1998: Neuroscience, 84, 479-487) with some modifications (unilateral instead of bilateral injection). Three months old, Sprague Dawley rats, were randomly divided into different groups. Injection of amyloid β1-40 and ibotenic acid (both from Sigma) was accomplished by means of a stereotaxic instrument (Stoelting Co.) and the coordinates were AP=−0.5 mm […], L=−2.8 mm […], H=−7.0 mm (ventral to dura). The dose for each rat was amyloid β1-40 (4 μg) and ibotenic acid (1 μg) in 1 μl of saline. The injection was completed in 20 min, and the needle was withdrawn 10 min later. Then the skin was sutured.
# (§5) The 8 groups were: • Operated control injected with normal saline (control) • Model (control injected with amyloid β+ibotenic acid) • Model+Episarsasapogenin cathylate (18 mg/kg/day)* • Model+Sarsasapogenin cathylate (18 mg/kg/day)* • Model+Episarsasapogenin ethylsuccinate (18 mg/kg/day) (comparison) • Model+Episarsasapogenin (18 mg/kg/day)* • Model+Epismilagenin (18 mg/kg/day)* • Model+Diosgenin (i.e. negative control, 18 mg/kg/day)
# (§6) Episarsasapogenin cathylate, sarsasapogenin cathylate, episarsasapogenin ethylsuccinate (comparison compound), episarsasapogenin, epismilagenin and diosgenin (all at a dosage of 18 mg/kg/day) were administered to animals as stable suspensions in CMC—Na (0.5%) once daily through a gastric tube. The control and the model group were given the same volume of CMC—Na (0.5%) once daily. The drugs and vehicles were given for a period of two months, starting 20 days before operation.
# Step-Through Test: learning and memory. The effect of test compounds on learning and memory was assessed using the step-through test. A 60×15×15 cm box, divided into 2 equally sized rooms, one dark room with copper rod base, which was electrically charged (40 V ac) when in use, while the other was a light room but not electrically charged. Between the two rooms there is an opening (hole) for the rat to go through. The experiment is carried out for each rat on two consecutive days. The first day is for training; when the rat is adapted in the box for the first 3 min, then put in the light room, with its back toward the hole, and the copper rods of the dark room are charged for 5 min. The second day is for testing, when the number of crosses in 5 min are recorded. Improvements in memory are signalled by a reduction in the number of crosses.
# [4] = tested on: muscarinic acetylcholine receptor; experiment: Brain M receptor density (3H-QNB) in amyloid β + ibotenic acid rat model; assay type: in vivo; conditions: 18 mg/kg/day gastric tube, two months; model 713 ± 48, control 859 ± 101
# Description: as §3, §4, §5, §6
# Muscarinic acetylcholine receptor density was assessed. The brain samples were homogenised, centrifuged, and the pellet of centrifugation at 27000×g was re-homogenised and used for measurement. The concentration of ^3H-QNB was chosen at the saturation range. After incubation and separation, the bound portion was measured by liquid scintillation counter.
# BDNF = BDNF levels in aged rats; assay type: in vivo, rat; conditions: aged rats treated 3 months; aged untreated 1.205±0.219, young 1.647±0.277
# Description: as §2
# [5] = tested on: rat primary spinal motor neurones; experiment: Glutamate-induced neurodegeneration in spinal motor neurones (LDH); assay type: cell-based; conditions: control 100 ± 1
# Description: The objective of this study was to examine the effects of sarsasapogenin and smilagenin on the survival of rat primary spinal motor neurones exposed to glutamate, which is known to induce neurodegeneration in this model of motor neurodegeneration.
# Rat motor neurones were prepared according to the method described by (Martinou et al, Neuron, 8, 737-744, 1992). On day 10, medium was removed and the cultures were exposed to glutamate (4 microM) for 10 min at 37° C. in defined medium. After the glutamate exposure, cultures were washed with Dulbecco modified Eagle medium at 37° C. then placed in fresh culture medium containing test compounds. After 48 h, the extent of spinal motor neurone degeneration was determined by measuring the amount of lactate dehydrogenase (LDH) released into the culture medium as above.
# [6] = tested on: rat mesencephalic dopaminergic neurones; experiment: Treatment of dopaminergic neurones after MPP+ exposure (survival, neurites); assay type: cell-based; conditions: MPP+ 2 μM
# From the text: Smilagenin and sarsasapogenin also reverse the neurodegeneration caused by exposure to the neurotoxin 1-methyl-4-phenylpyridinium (MPP^+) in rat mesencephalic dopaminergic neurones; a model of Parkinson's disease in vitro.
# Glial cell line-derived neurotrophic factor (GDNF) and brain-derived neurotrophic factor (BDNF), molecules that are involved in neuronal growth, and 17β-oestradiol were used as positive controls. Treatment with smilagenin and sarsasapogenin produced a significant increase in the neuronal survival compared to neurones exposed to MPP^+ alone (Table 8).
# Exposure to MPP^+ caused not only a significant decrease in dopaminergic number but also in the percentage of neurites.
# [7] = tested on: rat mesencephalic dopaminergic neurones; experiment: Pre-treatment of dopaminergic neurones before MPP+ exposure (neuronal survival); assay type: cell-based; conditions: pre-treatment 30 nM; MPP+ 2 μM; MPP+ alone 55 ± 3
# From the text: Smilagenin and sarsasapogenin prevent the neurodegeneration caused by exposure to the neurotoxin, 1-methyl-4-phenylpyridinium (MPP^+) in rat mesencephalic dopaminergic neurones; a model of Parkinson's disease in vitro.
# Glial cell line-derived neurotrophic factor (GDNF) and brain-derived neurotrophic factor (BDNF), molecules that are involved in neuronal growth, were used as positive controls.
# dopamine (D) 1 receptor = experiment: Dopamine D1 receptor density in aged rats; assay type: in vivo, rat; conditions: aged rats treated 3 months; aged untreated 129.2±36.8, young 157.5±33.2
# Description: as §2
# (§7) By contrast, smilagenin and sarsasapogenin treatment in aged rats for 3 months restored the D1 and D2 receptor density (smilagenin 177±10.9; 217±45.7 fmol/mg protein; sarsasapogenin 172.0±44.0; 206.4±60.5 respectively).
# [8] = tested on: rat primary cortical neurones; experiment: Reversal of glutamate-induced neurodegeneration (LDH), treatment after glutamate exposure; assay type: cell-based; conditions: LDH after 24 h, control = 100
# Description: as §1
# As above mentioned, exposure of rat primary cortical cultures to glutamate (100 μM; 10 min) caused an increase in lactate dehydrogenase (LDH) activity measured after 24 h, indicating a significant neurodegeneration.
# dopamine (D) 2 receptor = experiment: Dopamine D2 receptor density in aged rats; assay type: in vivo, rat; conditions: aged rats treated 3 months; aged untreated 153.8±40.5, young 200.6±50.9
# Description: as §2, §7
# [9] = tested on: rat primary cortical neurones; experiment: Neurite outgrowth in rat primary cortical neurones; assay type: cell-based; conditions: for Number of neurones displaying neurites, Mean ± s.e.m (%): control 47 ± 2; for Neurite length measured using optical micrometry, Mean ± s.e.m (%): control 100 ± 4
# From the text: Neurodegenerative disorders are characterised by a progressive loss of neurones and degradation of neuronal processes (neurites). Agents that induce neurite outgrowth may promote the formation of new connections between neurones and ameliorate the symptoms of neurodegenerative conditions (Katzman et al, Faseb J., 5, 278-286, 1991).
# [10] = tested on: progressive motor neuropathy (pmn) mice; experiment: Survival and behaviour of pmn mice (Charcot-Marie-Tooth model); assay type: in vivo; conditions: pmn mouse
# From the text: Amyotrophic lateral sclerosis (ALS) is a progressive fatal neurodegenerative disorder that causes motor neurone degeneration, […], paralysis and death. The cause of this disease is heterogeneous: mutations in the Cu/Zn superoxide dismutase (SOD-1) gene is responsible for some forms of human ALS. Animal models of this disease include the SOD-1 transgenic mice over-expressing SOD-1 gene and the progressive motor neuropathy (pmn, a model of Charcot-Marie-Tooth) mice.
smiles,measurement,setting,value
CCOC(=O)O[C@@H]1CC[C@@]2(C)[C@H](CC[C@@H]3[C@@H]2CC[C@]2(C)[C@@H]4[C@H](C[C@@H]32)O[C@]2(CC[C@H](C)CO2)[C@H]4C)C1 [episarsasapogenin cathylate],"Prevention of glutamate-induced neurodegeneration, Mean ± s.e.m (%)",[1],74 ± 3%
same,Muscarinic acetylcholine receptor density in brain,[2],significantly restored
same,Learning and memory ability (Y-maze),aged Sprague-Dawley rats,restored the learning and memory ability
same,Learning and memory Step through test Error No,[3],1.36 ± 0.92*
same,M receptor density,[4],877 ± 89* fmol/mg/protein
C[C@H]1CC[C@@]2(OC1)O[C@H]1C[C@H]3[C@@H]4CC[C@@H]5C[C@@H](O)CC[C@]5(C)[C@H]4CC[C@]3(C)[C@H]1[C@@H]2C [sarsasapogenin],BDNF levels,BDNF,1.410±0.232 ng/g tissue
same,"Prevention of glutamate-induced neurodegeneration, Mean ± s.e.m (%)",[1],79 ± 3%
same,Muscarinic acetylcholine receptor density in brain,[2],significantly restored
same,"Glutamate-induced neurodegeneration in spinal motor neurones, Mean ± s.e.m (%)",[5]; 0.03 nM for 48 h after glutamate 4 microM 10 min,123 ± 2%
same,"Glutamate-induced neurodegeneration in spinal motor neurones, Mean ± s.e.m (%)",[5]; 3 nM for 48 h after glutamate 4 microM 10 min,137 ± 1%
same,"Glutamate-induced neurodegeneration in spinal motor neurones, Mean ± s.e.m (%)",[5]; 300 nM for 48 h after glutamate 4 microM 10 min,136 ± 6%
same,"Percentage of neurites in dopaminergic neurones after MPP+ exposure, Mean ± s.e.m (%)","[6]; 0.03 nM, control 41 ± 4, MPP+ alone 27 ± 5",43 ± 4%
same,"Dopaminergic neurones after MPP+ exposure (survival), Mean ± s.e.m (%)","[6]; treatment 0.03 nM, MPP+ alone 76 ± 4",112 ± 6%
same,Learning and memory ability (Y-maze),aged Sprague-Dawley rats,restored the learning and memory ability
same,"Dopaminergic neurones after MPP+ exposure (survival), Mean ± s.e.m (%)",[7],89 ± 3%
same,D1 receptor density,dopamine (D) 1 receptor,172.0±44.0 fmol/mg protein
same,"Cortical neurones previously exposed to glutamate, Mean ± s.e.m (%)",[8]; 3 nM after glutamate 100 μM 10 min,101 ± 3%
same,"Cortical neurones previously exposed to glutamate, Mean ± s.e.m (%)",[8]; 30 nM after glutamate 100 μM 10 min,112 ± 1%
same,D2 receptor density,dopamine (D) 2 receptor,206.4±60.5 fmol/mg protein
same,"Number of neurones displaying neurites, Mean ± s.e.m (%)",[9]; 0.3 pM,55 ± 2%
same,"Neurite length measured using optical micrometry, Mean ± s.e.m (%)",[9]; 0.3 pM,177 ± 5%
same,"Number of neurones displaying neurites, Mean ± s.e.m (%)",[9]; 3 pM,61 ± 1%
same,"Neurite length measured using optical micrometry, Mean ± s.e.m (%)",[9]; 3 pM,197 ± 5%
same,"Number of neurones displaying neurites, Mean ± s.e.m (%)",[9]; 30 pM,62 ± 2%
same,"Neurite length measured using optical micrometry, Mean ± s.e.m (%)",[9]; 30 pM,211 ± 6%
same,Behavioural deficits,[10]; oral administration,improve the behavioural deficits
same,Lifespan (survival),[10]; oral administration (FIG. 6),increase the lifespan
